The source of these data is patent US7635779B2, “Oxy substituted flavones as antihyperglycemic and antidyslipidemic agents” (Council of Scientific & Industrial Research, priority 2004, dated 2009).

One data set concerns sucrose loaded rat. Description: Sucrose loaded rat model (SLM), antihyperglycemic activity. Particulars: for inhibition in vivo at 100 mg/kg: Rattus norvegicus, po, 2 h, read-out: % Fall in blood glucose levels, SLM; for % Fall in blood glucose levels, SLM: 100 mg/kg oral, AUC vs control. The data set is classed as in vivo. The procedure: Male albino rats of Charles Foster/Wistar strain of average body weight 160±20 g were selected for this study. The blood glucose level of each animal was checked by glucometer using glucostrips (Boehringer Mannheim) after 16 h starvation. Animals showing blood glucose levels between 3.33 to 4.44 mM (60 to 80 mg/dl) were divided into groups of five to six animals in each. Animals of experimental group were administered suspension of the desired synthetic compound orally (made in 1.0% gum acacia) at a dose of 100-mg/kg-body weight. Animals of control group were given an equal amount of 1.0% gum acacia. A sucrose load (10.0 g/kg) was given to each animal orally exactly after 30 min post administration of the test sample/vehicle. Blood glucose profile of each rat was again determined at 30, 60, 90 and 120 min post administration of sucrose by glucometer. Food but not water was withheld from the cages during the course of experimentation. Quantitative glucose tolerance of each animal was calculated by Area Under Curve (AUC) method (Prism Software). Comparing the AUC of experimental and control groups determined the percentage antihyperglycemic activity. Statistical comparison was made by Dunnett's test.

Data set [1] concerns streptozotocin-induced diabetic rats. Put plainly: Sucrose-challenged streptozotocin-induced diabetic rats (STZ-S). In kind it is in vivo, rat. Particulars: 100 mg/kg oral. The method, then: Male albino rats of Sprague Dawley strain of body weight 160+20 g were selected for this study. Streptozotocin (Sigma, USA) was dissolved in 100 mM citrate buffer pH 4.5 and calculated amount of the fresh solution was injected to overnight fasted rats (45 mg/kg) intraperitoneally. Blood glucose level was checked 48 h later by glucostrips and animals showing blood glucose values between 144 to 270 mg/dl (8 to 15 mM) were included in the experiment and termed diabetic. The diabetic animals were divided into groups consisting of five to six animals in each group. Animals of experimental groups were administered suspension of the desired test samples orally (made in 1.0% gum acacia) at a dose of 100-mg/kg-body weight. Animals of control group were given an equal amount of 1.0% gum acacia. A sucrose load of 2.5-g/kg body weight was given after 30 minutes of compound administration. After 30 minutes of post sucrose load blood glucose level was again checked by glucostrips at 30, 60, 90, 120, 180, 240, 300 min and at 24 h, respectively. Animals not found diabetic after 24 hours post treatment of the test sample were not considered and omitted from the calculations and termed as non-responders. […] Food but not water was withheld from the cages during the experimentation. Comparing the AUC of experimental and control groups determined the percent antihyperglycemic activity. Statistical comparison between groups was made by Student's ‘t’ test.
As depicted in the FIGURE, a dose response curve of 34 was obtained by administering different doses of test compound to streptozotocin-induced diabetic rats (Table 6). […]

In data set [2] the test system is triton WR-1339 induced hyperlipidemic rats. Put plainly: Triton model, antidyslipidemic activity. Particulars: Rattus norvegicus, 100 mg/kg oral, plasma after 18 h. The data set is classed as in vivo, rat. The procedure: Male Charles foster rats weighing 200-225 g were divided into control, hyperlipidemic and hyperlipidemic plus drug treated groups containing six animals in each group. Hyperlipidemia was induced by administration of triton WR-1339 (200 mg/kg i.p.). All animals were maintained on a special pellet diet and water ad libitum. Compounds and standard drug were macerated with 0.2% aqueous gum acacia suspension. The suspension was fed orally at the dose of 100 mg/kg simultaneously with triton in drug treated group. The animals of control group received the same amount of gum acacia by similar route of administration. At the end of the experiment, after 18 h, blood was withdrawn from retro orbital plexus and plasma was used for the assay of total cholesterol, phospholipid and triglycerides.
Cholesterol was estimated using the kit provided by Roche Diagnostics. Cholesterol esters are enzymatically hydrolyzed by cholesterol esterase (CE) to cholesterol and free fatty acids. Free cholesterol, including that originally present, is then oxidized by cholesterol oxidase (CO) to cholest-4-en-3-one and hydrogen peroxide. The hydrogen peroxide combines with hydroxy benzoic acid (HBA) and 4-aminoantipyrine (4AAA) in the presence of peroxidase (POD) to form a chromophore (quinoneimine dye), which may be quantitated at 500-505 nm. The intensity of red colour formed is directly proportional to the concentration of total cholesterol in the specimen and measured spectrophotometrically (Searcy, C. L. Diagnostic Biochemistry, 1969, McGraw Hill, New York; Ellefson, R. D.; Caraway, W. T. Fundamentals of clinical chemistry, 1976, Ed Tietz N W, 506-515.)
Triglycerides were estimated using the kit provided by Roche Diagnostics. Lipoprotein lipase hydrolyses triglycerides to yield glycerol and fatty acids. Glycerol kinase converts glycerol to glycerol-3-phosphate, which is oxidized by glycerol phosphate oxidase to dihydroxy acetone phosphate and hydrogen peroxide. In the presence of peroxidase, hydrogen peroxide oxidatively couples with 4-aminoantipyrine and 4-chloro phenol to produce red quinonimine dye. The intensity of red colour formed is directly proportional to the concentration of triglycerides in the specimen and is measured by photometrically (Wahlefeld, A. W.; Bergmeyer, H. U. Ed. Methods of enzymatic analysis, 2nd English edition, New York, N.Y., Academic press inc, 1831-1840.).
Serum (0.2 mL) and perchloric acid (1.0 mL) was digested at 180° C. for 1-1.5 h till the solution became colorless. The liberated inorganic phosphate (Pi) was measured by the method of Fiske and Subbarow (Fiske, C. H.; Subbarow, V. J. Biol. Chem. 1925, 66, 375.). 1 mL of 2.5% ammonium molybdate (prepared in 5 N sulphuric acid) and 0.5 mL reducing agent (4-amino naphthol sulphonic acid, 0.2%), sodium metabisulphite (2.4% w/v in distilled water) was added to the above tubes and mixed well. The reaction mixture was […] with 2.5 mL of triple distilled water and kept at 60° C. in water bath for 20 min. For standard, an appropriate amount of potassium dihydrogen phosphate dissolved in triple distilled water containing 2-10 μg phosphorous (Pi) was run simultaneously with the experiment tubes. The optical density of the blue colour was recorded at 620 nm against reagent blank. The values of Pi were converted into phospholipid by multiplying with 25 (a constant calibrated from Pi value of lecithin).

The mark [3] stands for this setting: phospholipid, read-out: % Fall in lipid levels (Triton model) PL.
Where [4] appears, read: total cholesterol, read-out: % Fall in lipid levels (Triton model) TC.
[5] abbreviates: triglycerides, read-out: % Fall in lipid levels (Triton model) TG.

Structures are written as SMILES. Where two headings read alike, the source gives them in different places.

As for `O=c1cc(-c2cc(OCc3ccccc3)cc(OCc3ccccc3)c2)oc2cc(OCC(O)CN3CCN(c4ccccc4)CC3)ccc12` (centres unmarked) [Compound 36, 3′,5′-Dibenzyloxy-7-[2-hydroxy-3-(4-phenylpiperazin-1-yl)-propoxy]-flavone], the melting point – broadly, the temperature, or range, at which the solid turns liquid – fell in the range of 168 to 170 °C. In addition, the inhibition in vivo at 100 mg/kg in the data set with sucrose loaded rat amounted to 34.6%. Also, in data set [1], the “% Fall in blood glucose levels, STZ-S 5 h” value (shortened to “% Fall … STZ-S 5 h”) is “NIL” and the “% Fall in blood glucose levels, STZ-S 24 h” value (from here on “% Fall … STZ-S 24 h”) is given as 2.46%. For the same compound, the inhibition in vivo at 100 mg/kg in data set [2] (setting [3]) was found to be 21%. Further, the inhibition in vivo at 100 mg/kg in data set [2] (setting [4]) was 24%. The inhibition in vivo at 100 mg/kg in data set [2] (setting [5]) is 17%.

The compound `COc1cc(OC)cc(-c2cc(=O)c3ccc(OCC(O)CNC(C)(C)C)cc3o2)c1` (centres unmarked) [Compound 43, 7-[3-tert-Butylamino-2-hydroxy-propoxy]-3′,5′-dimethoxy flavone] gave a melting point of 145 to 146 °C. Also, the “% Fall in blood glucose levels, SLM” value with sucrose loaded rat is recorded as “NIL”. Further, the inhibition in vivo at 100 mg/kg in data set [2] (setting [3]) came out at 19%. The inhibition in vivo at 100 mg/kg in data set [2] (setting [4]) is 21%. Besides, in data set [2] (setting [5]), the inhibition in vivo at 100 mg/kg was determined as 17%.

For `COc1cc(-c2cc(=O)c3ccc(OCC(O)CN4CCN(c5ccccc5)CC4)cc3o2)cc(OC)c1OC` (centres unmarked) [Compound 42, 7-[2-Hydroxy-3-(4-phenylpiperazin-1-yl)-propoxy]-3′,4′,5′-trimethoxy-flavone], the melting point was 170 to 171 °C. For the same compound, in the data set with sucrose loaded rat, the inhibition in vivo at 100 mg/kg came to 5.64%. The inhibition in vivo at 100 mg/kg in data set [2] (setting [3]) came out at 8%. In data set [2] (setting [4]), the inhibition in vivo at 100 mg/kg was found to be 19%. In addition, the inhibition in vivo at 100 mg/kg in data set [2] (setting [5]) stood at 23%.

In turn, `CC(C)NCC(O)COc1ccc2c(=O)cc(-c3ccc(OCc4ccccc4)c(OCc4ccccc4)c3)oc2c1` (centres unmarked) [Compound 38, 3′,4′-Dibenzyloxy-7-(2-hydroxy-3-iso-propylamino-propoxy)-flavone] yielded a melting point of 177 to 179 °C. The “% Fall in blood glucose levels, SLM” value in the data set on sucrose loaded rat was “NIL”. Also, in data set [2] (setting [3]), the inhibition in vivo at 100 mg/kg was 5%. The inhibition in vivo at 100 mg/kg in data set [2] (setting [4]) was 16%. In data set [2] (setting [5]), the inhibition in vivo at 100 mg/kg is 14%.

The compound `CC(C)(C)NCC(O)COc1ccc2oc(-c3ccc(OCc4ccccc4)c(OCc4ccccc4)c3)cc(=O)c2c1` (centres unmarked) [Compound 39, 6-(3-tert-Butylamino-2-hydroxy-propoxy)-3′,4′-dibenzyloxy-flavone] displayed a melting point of 156 to 157 °C. Besides, the inhibition in vivo at 100 mg/kg with sucrose loaded rat turned out to be 21.8%. Moreover, in data set [1], the “% Fall … STZ-S 5 h” value turned out to be 14.9% and the “% Fall … STZ-S 24 h” value is on record as 0.36%. The inhibition in vivo at 100 mg/kg in data set [2] (setting [3]) was 12%. Besides, in data set [2] (setting [4]), the inhibition in vivo at 100 mg/kg came to 21%. Also, the inhibition in vivo at 100 mg/kg in data set [2] (setting [5]) amounted to 17%.

On to `COc1cc(-c2cc(=O)c3ccc(OCC(O)CNC(C)C)cc3o2)cc(OC)c1OC` (centres unmarked) [Compound 41, 7-(2-Hydroxy-3-iso-propylamino-propoxy)-3′,4′,5′-trimethoxy-flavone], for which the melting point was in the range of 106 to 107 °C. Also, the inhibition in vivo at 100 mg/kg in the data set on sucrose loaded rat was 20.7%. For the same compound, in data set [1], the “% Fall … STZ-S 5 h” value stood at 17.4% and the “% Fall … STZ-S 24 h” value came to 19.1%. Also, the inhibition in vivo at 100 mg/kg in data set [2] (setting [3]) stood at 16%. Further, the inhibition in vivo at 100 mg/kg in data set [2] (setting [4]) worked out at 18%. Besides, the inhibition in vivo at 100 mg/kg in data set [2] (setting [5]) came out at 19%.

As to `COc1cc(OC)cc(-c2cc(=O)c3ccc(OCC(O)CNC(C)C)cc3o2)c1` (centres unmarked) [Compound 44, 3′,5′-Dimethoxy-7-[2-hydroxy-3-iso-propylamino-propoxy]-flavone], the melting point was in the range of 155 to 156 °C. The inhibition in vivo at 100 mg/kg in the data set on sucrose loaded rat was 1.36%. Besides, the inhibition in vivo at 100 mg/kg in data set [2] (setting [3]) came out at 21%. Besides, the inhibition in vivo at 100 mg/kg in data set [2] (setting [4]) was found to be 17%. In data set [2] (setting [5]), the inhibition in vivo at 100 mg/kg was determined as 24%.

For the compound `COc1ccc(-c2cc(=O)c3ccc(OCC(O)CN4CCN(c5ccccc5)CC4)cc3o2)cc1OC` (centres unmarked) [Compound 47, 3′,4′-Dimethoxy-7-[2-hydroxy-3-(4-phenylpiperazin-1-yl)-propoxy]-flavone], the melting point lay within 191 to 193 °C. For the same compound, the inhibition in vivo at 100 mg/kg in the data set with sucrose loaded rat is 5.45%. Moreover, the inhibition in vivo at 100 mg/kg in data set [2] (setting [3]) worked out at 22%. For the same compound, in data set [2] (setting [4]), the inhibition in vivo at 100 mg/kg turned out to be 23%. In data set [2] (setting [5]), the inhibition in vivo at 100 mg/kg worked out at 19%.

With `CC(C)(C)NCC(O)COc1ccc2c(=O)cc(-c3cc(O)cc(O)c3)oc2c1` (centres unmarked) [Compound 48, 7-(3-tert-Butylamino-2-hydroxy-propoxy)-3′,5′-dihydroxy-flavone], the melting point is 153 °C (dec.). In the data set with sucrose loaded rat, the inhibition in vivo at 100 mg/kg was 19.1%. In addition, in data set [1], the “% Fall … STZ-S 5 h” value is reported as “NIL” and the “% Fall … STZ-S 24 h” value is listed as “NIL”. Besides, in data set [2] (setting [3]), the inhibition in vivo at 100 mg/kg came out at 4%. Also, in data set [2] (setting [4]), the inhibition in vivo at 100 mg/kg is 17%. Besides, in data set [2] (setting [5]), the inhibition in vivo at 100 mg/kg was found to be 16%.
